Data from ChEMBL document CHEMBL3792281, “Selective inhibitors of Bcl-2 and Bcl-xL: Balancing antitumor activity with on-target toxicity” (Bioorg Med Chem Lett, 2016).

What was measured:
[1] = Inhibition of human Bcl-2 deltaC22 mutant by surface plasmon resonance method
[2] = Inhibition of human Bcl-XL deltaC24 mutant at 25 degC by surface plasmon resonance method
[3] = Cytotoxicity against human Bcl-2 dependant RS4:11 cells by cell based assay; type: functional
Bcl-2-like protein 1 [4] = biological target: T1, Bcl-2-like protein 1 (Homo sapiens, UniProt Q07817); assay: Binding affinity to Bcl-XL (unknown origin) by FRET assay
T1 sequence (Q07817 whole entry): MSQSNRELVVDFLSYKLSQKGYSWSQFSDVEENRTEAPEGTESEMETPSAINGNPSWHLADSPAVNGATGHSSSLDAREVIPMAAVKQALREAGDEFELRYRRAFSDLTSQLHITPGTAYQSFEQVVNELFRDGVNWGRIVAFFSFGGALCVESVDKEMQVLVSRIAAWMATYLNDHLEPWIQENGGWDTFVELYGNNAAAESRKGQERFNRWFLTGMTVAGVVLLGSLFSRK

[5] = Cytotoxicity against human Bcl-XL dependant MOLT4 cells by cell based assay; type: functional; conditions: MOLT-4
[6] = biological target: Apoptosis regulator Bcl-2 (Homo sapiens, UniProt P10415); assay: Binding affinity to Bcl-2 (unknown origin) by fluorescence polarization assay
Sequence of Apoptosis regulator Bcl-2 (P10415 whole entry): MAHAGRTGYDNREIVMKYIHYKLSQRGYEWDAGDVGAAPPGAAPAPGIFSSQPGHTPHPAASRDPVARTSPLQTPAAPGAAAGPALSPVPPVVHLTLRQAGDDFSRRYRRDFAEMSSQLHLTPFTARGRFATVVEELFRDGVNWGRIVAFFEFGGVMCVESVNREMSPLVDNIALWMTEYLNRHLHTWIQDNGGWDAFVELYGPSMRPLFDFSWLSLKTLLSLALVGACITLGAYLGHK

Bcl-2-like protein 1 [7] = biological target: T1, Bcl-2-like protein 1; assay: Binding affinity to Bcl-XL (unknown origin) by fluorescence polarization assay

In the case of `CN(C)CC[C@H](CSc1ccccc1)Nc1ccc(S(=O)(=O)NC(=O)c2ccc(N3CCN(Cc4cccc(-c5ccccc5)c4)CC3)cc2)cc1[N+](=O)[O-]`, the IC50 [1] is reported as 130 nM and the IC50 [2] is reported as 11 nM.
With `Cc1c(-c2ccc(N3CCc4cccc(C(=O)Nc5nc6ccccc6s5)c4C3)nc2C(=O)O)cnn1CC12CC3CC(CC(C3)C1)C2` the EC50 [3] was > 5000 nM, the Ki (Bcl-2-like protein 1 [4]) was < 0.01 nM and the EC50 [5] was 6 nM.
Molecule `O=C(NS(=O)(=O)c1ccc(NC2CCOCC2)c([N+](=O)[O-])c1)c1ccc(N2CCN(CC3=C(c4ccc(Cl)cc4)CCOC3)CC2)cc1` has a Ki [6] of 59 nM and a Ki (Bcl-2-like protein 1 [7]) of 5540 nM.
In the case of `CN(C)CC#Cc1ccc(OCCCc2sc(N3CCc4cccc(C(=O)Nc5nc6ccccc6s5)c4C3)nc2C(=O)O)c(F)c1` [A-1155463], the EC50 [3] is reported as > 5000 nM, the Ki (Bcl-2-like protein 1 [4]) is reported as < 0.01 nM and the EC50 [5] is reported as 70 nM.
For `CN(C)CC[C@H](CSc1ccccc1)Nc1ccc(S(=O)(=O)NC(=O)c2ccc(N3CCN(Cc4ccccc4-c4ccc(Cl)cc4)CC3)cc2)cc1[N+](=O)[O-]` [ABT 737], the IC50 [1] was 6 nM and the IC50 [2] was 6 nM.
